Each block holds one compound with its values, some of them ahead of it.
System: 519858-162-T-J1-PDC complex spheroid viability
Test: Anticancer human tumor 519858-162-T-J1-PDC patient-derived colon adenocarcinoma cell line growth inhibition [GQUAD]
Conditions: for viability, T/C: stronger effect = lower value
From the text: DNA G-quadruplex Stabilizer Agents in Combinations in Complex Spheroids
A high-throughput screen of multi-cell type tumor spheroids was designed to identify active combinations of DNA G-quadruplex stabilizer agents and targeted small molecules. Complex spheroids include a stromal component modeled by human endothelial cells (HUVEC) and fibroblasts modeled by human mesenchymal stem cells (MSCs). The concentration ranges selected for each drug and investigational agent were based upon clinically achievable concentrations if the clinical Cmax of the agent was known.
Compounds. The drugs and investigational agents: pidnarulex (CX-5461; NSC782164), APTO-253 (NSC789042), BRACO-19 (NSC847499), peposertib (NSC802822), ceralasertib (NSC780249), elimusertib (NSC800525), camonsertib (NSC841442), AZD-1390 (NSC803789), olaparib (NSC753686), talazoparib (NSC767125), ART-558 (NSC835418), sotorasib (NSC818433), MRTX-1133 (NSC836407), SN-38 (NSC673596), topotecan (NSC609699), etoposide (NSC141540), doxorubicin (NSC123127), gemcitabine (NSC613327), 5-fluorouracil (NSC19893), paclitaxel (NSC125973), vemurafenib (NSC761431), panobinostat (NSC761190), R-306465 (JNJ-16241199; NSC773264), adavosertib (NSC754352), TP-3654 (NSC805149), carboplatin (NSC241240), KSQ-4279 (NSC840948), and staurosporine (NSC755774) were obtained from the National Cancer Institute (NCI) Developmental Therapeutics Program Chemical Repository (34). The FDA-approved anticancer drug set is available from the NCI Developmental Therapeutics Program. […] The stock solutions were prepared in dimethyl sulfoxide (DMSO, Sigma-Aldrich, St. Louis, MO, cat. D2650) at 800-fold the tested concentration and stored at -70 degrees C prior to their use. All drugs and investigational agents were tested over a range starting from a high concentration at or near the clinical Cmax and decreasing in half-log increments. If the clinical Cmax for an agent had not been determined, the highest concentration tested was 10 microM.
2.3 Cell Culture. All cells were maintained in an incubator at 37 degrees C and 5% CO2 with 95% humidity. The PDC lines were cultured according to standard operating procedures established by the NCI PDMR. All PDCs were thawed and cultured in Matrigel-coated flasks prepared with a working solution of 1X Ham's F-12 nutrient mix, without supplementation (Invitrogen, cat. 11765054), 100 U/mL penicillin-streptomycin (Invitrogen, cat. 15140122), and 2.5% Matrigel (Corning Inc., cat. 354248) for the first three passages. The 857933-349-R-J2-PDC line was cultured in 6C/Colon 1B media, which includes advanced DMEM/F-12 (Thermo Fisher Scientific, cat. 12634028), 10 mM HEPES (Thermo Fisher Scientific, cat. 15630080), 1X GlutaMAX supplement (Thermo Fisher Scientific, cat. 35050061), 0.1 mg/mL primocin (InvivoGen, cat. ant-pm-2), 10% defined fetal bovine serum, heat inactivated (HyClone Laboratories Inc., cat. SH30070.03HI), 50% L-WRN conditioned media (ATCC, cat. CRL-3276), 1.25 mM N-Acetyl-L-cysteine (Sigma-Aldrich, cat. A9165), 10 mM nicotinamide (Sigma-Aldrich, cat. N0636), 1X B-27 supplement (Thermo Fisher Scientific, cat. 17504044), 1X N-2 supplement (Thermo Fisher Scientific, cat. 17502048), 10 microM Y-27632 dihydrochloride (Tocris Bioscience, cat. 1254), and 50 ng/mL human EGF recombinant protein (Thermo Fisher Scientific, cat. PHG0311). The 485176-168-R4-J1-PDC line was cultured in Panc media, which includes all 6C/Colon 1B media components plus 100 ng/mL human FGF-10 (Thermo Fisher Scientific, cat. 100-26), 500 nM SB-431542 (Selleckchem, cat. S1067), and gastrin (Tocris, cat. 3006).
[…]

[1] = curve of first compound, second compound 0.0316 µM
[2] = curve of first compound, second compound 0.1 µM
[3] = curve of first compound, second compound 0.316 µM
[4] = curve of first compound, second compound 1 µM
[5] = curve of first compound, second compound 3.16 µM
[6] = curve of first compound, second compound 10 µM
[7] = second compound 0.0316 µM, first compound 0.0316 µM
[8] = second compound 0.0316 µM, first compound 0.1 µM
[9] = second compound 0.0316 µM, first compound 0.316 µM
[10] = second compound 0.0316 µM, first compound 1 µM
[11] = second compound 0.0316 µM, first compound 3.16 µM
[12] = second compound 0.0316 µM, first compound 10 µM
[13] = second compound 0.1 µM, first compound 0.0316 µM
[14] = second compound 0.1 µM, first compound 0.1 µM
[15] = second compound 0.1 µM, first compound 0.316 µM
[16] = second compound 0.1 µM, first compound 1 µM
[17] = second compound 0.1 µM, first compound 3.16 µM
[18] = second compound 0.1 µM, first compound 10 µM
[19] = second compound 0.316 µM, first compound 0.0316 µM
[20] = second compound 0.316 µM, first compound 0.1 µM
[21] = second compound 0.316 µM, first compound 0.316 µM
[22] = second compound 0.316 µM, first compound 1 µM
[23] = second compound 0.316 µM, first compound 3.16 µM
[24] = second compound 0.316 µM, first compound 10 µM
[25] = second compound 1 µM, first compound 0.0316 µM
[26] = second compound 1 µM, first compound 0.1 µM
[27] = second compound 1 µM, first compound 0.316 µM
[28] = second compound 1 µM, first compound 1 µM
[29] = second compound 1 µM, first compound 3.16 µM
[30] = second compound 1 µM, first compound 10 µM
[31] = second compound 3.16 µM, first compound 0.0316 µM
[32] = second compound 3.16 µM, first compound 0.1 µM
[33] = second compound 3.16 µM, first compound 0.316 µM
[34] = second compound 3.16 µM, first compound 1 µM
[35] = second compound 3.16 µM, first compound 3.16 µM
[36] = second compound 3.16 µM, first compound 10 µM
[37] = second compound 10 µM, first compound 0.0316 µM
[38] = second compound 10 µM, first compound 0.1 µM
[39] = second compound 10 µM, first compound 0.316 µM
[40] = second compound 10 µM, first compound 1 µM
[41] = second compound 10 µM, first compound 3.16 µM
[42] = second compound 10 µM, first compound 10 µM
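Also: spheroids exposed to compounds for 7 days.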
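For viability, T/C in this document: 100% = DMSO vehicle control viability.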

IC50 (curve of compound): > 0.316 µM
Compound: Cc1[nH]c2ccccc2c1CCNCc1ccc(/C=C/C(=O)NO)cc1
viability, T/C (compound 0.000999 µM): 94.4%
viability, T/C (compound 0.00316 µM): 108%
viability, T/C (compound 0.00999 µM): 74.3%
viability, T/C (compound 0.0316 µM): 107%
viability, T/C (compound 0.0999 µM): 75.5%
viability, T/C (compound 0.316 µM): 50.6%

Compound: C=CCn1c(=O)c2cnc(Nc3ccc(N4CCN(C)CC4)cc3)nc2n1-c1cccc(C(C)(C)O)n1 + CN(C)c1ccc(Nc2c3ccc(NC(=O)CCN4CCCC4)cc3nc3cc(NC(=O)CCN4CCCC4)ccc23)cc1
IC50 [1]: > 10 µM
IC50 [2]: > 10 µM
IC50 [3]: > 10 µM
IC50 [4]: > 10 µM
IC50 [5]: > 10 µM
IC50 [6]: > 10 µM
viability, T/C [7]: 95.3%
viability, T/C [8]: 120%
viability, T/C [9]: 117%
viability, T/C [10]: 83.3%
viability, T/C [11]: 75.2%
viability, T/C [12]: 120%
viability, T/C [13]: 150%
viability, T/C [14]: 86.8%
viability, T/C [15]: 92.5%
viability, T/C [16]: 64.6%
viability, T/C [17]: 88.4%
viability, T/C [18]: 67.6%
viability, T/C [19]: 112%
viability, T/C [20]: 89.7%
viability, T/C [21]: 88.9%
viability, T/C [22]: 63.8%
viability, T/C [23]: 85.1%
viability, T/C [24]: 104%
viability, T/C [25]: 72.3%
viability, T/C [26]: 74.7%
viability, T/C [27]: 61.4%
viability, T/C [28]: 65%
viability, T/C [29]: 80.4%
viability, T/C [30]: 80.2%
viability, T/C [31]: 77.7%
viability, T/C [32]: 62%
viability, T/C [33]: 66.7%
viability, T/C [34]: 67.6%
viability, T/C [35]: 62.1%
viability, T/C [36]: 91.1%
viability, T/C [37]: 78%
viability, T/C [38]: 63.8%
viability, T/C [39]: 57.7%
viability, T/C [40]: 62%
viability, T/C [41]: 89.3%
viability, T/C [42]: 137%

Compound: CC1COCCN1c1cc(C2(S(C)(=N)=O)CC2)nc(-c2ccnc3[nH]ccc23)n1 (stereo unspecified) + Cc1[nH]c2ccc(F)cc2c1-c1nc2c3cccnc3c3ncccc3c2[nH]1
IC50 [1]: > 10 µM
IC50 [2]: > 10 µM
IC50 [3]: > 10 µM
IC50 [4]: > 10 µM
IC50 [5]: > 10 µM
IC50 [6]: > 10 µM
viability, T/C [7]: 87.1%
viability, T/C [8]: 91.3%
viability, T/C [9]: 96%
viability, T/C [10]: 113%
viability, T/C [11]: 82.8%
viability, T/C [12]: 81.3%
viability, T/C [13]: 68.2%
viability, T/C [14]: 106%
viability, T/C [15]: 75.4%
viability, T/C [16]: 73.6%
viability, T/C [17]: 91.7%
viability, T/C [18]: 79.3%
viability, T/C [19]: 121%
viability, T/C [20]: 111%
viability, T/C [21]: 104%
viability, T/C [22]: 87.8%
viability, T/C [23]: 67.3%
viability, T/C [24]: 96.2%
viability, T/C [25]: 71.8%
viability, T/C [26]: 81.6%
viability, T/C [27]: 75.8%
viability, T/C [28]: 73.7%
viability, T/C [29]: 61.4%
viability, T/C [30]: 75.3%
viability, T/C [31]: 74.8%
viability, T/C [32]: 79.5%
viability, T/C [33]: 87%
viability, T/C [34]: 55.6%
viability, T/C [35]: 73.2%
viability, T/C [36]: 54.6%
viability, T/C [37]: 65.2%
viability, T/C [38]: 74.7%
viability, T/C [39]: 55%
viability, T/C [40]: 60.2%
viability, T/C [41]: 67.8%
viability, T/C [42]: 44.1%
